From PubChem BioAssay (NCI)
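96-well plates; 48 h exposure; 5 concentrations. Endpoints by linear interpolation between flanking doses. Not reached: highest tested concentration assigned. GI50 is the concentration that inhibits growth by half. At the TGI there is no net growth.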

Assays:
Assay in all cases: DTP human tumour cell line panel, 48 h
UACC-62 melanoma = system: UACC-62 melanoma
SR leukemia = system: SR leukemia
CCRF-CEM leukemia = system: CCRF-CEM leukemia
NCI-H522 lung = system: NCI-H522 lung
OVCAR-8 ovarian = system: OVCAR-8 ovarian
HOP-62 NSCLC = system: HOP-62 NSCLC
MCF7 breast = system: MCF7 breast
KM12 colon = system: KM12 colon
MOLT-4 leukemia = system: MOLT-4 leukemia
SK-OV-3 ovarian = system: SK-OV-3 ovarian
OVCAR-5 ovarian = system: OVCAR-5 ovarian
HOP-92 NSCLC = system: HOP-92 NSCLC
HCC-2998 colon = system: HCC-2998 colon
T-47D breast = system: T-47D breast
IGROV1 ovarian = system: IGROV1 ovarian
OVCAR-3 ovarian = system: OVCAR-3 ovarian
ACHN renal = system: ACHN renal
NCI-H226 lung = system: NCI-H226 lung
HCT-15 colon = system: HCT-15 colon
SNB-19 CNS = system: SNB-19 CNS
SNB-75 CNS = system: SNB-75 CNS
SK-MEL-28 melanoma = system: SK-MEL-28 melanoma
M14 melanoma = system: M14 melanoma
EKVX NSCLC = system: EKVX NSCLC
A549 NSCLC = system: A549 NSCLC
A498 renal = system: A498 renal
SW-620 colon = system: SW-620 colon
SF-539 CNS = system: SF-539 CNS
MDA-N = system: MDA-N
MDA-MB-435 = system: MDA-MB-435
MALME-3M melanoma = system: MALME-3M melanoma
PC-3 prostate = system: PC-3 prostate
RXF 393 renal = system: RXF 393 renal
786-0 renal = system: 786-0 renal
SN12C renal = system: SN12C renal
UO-31 renal = system: UO-31 renal
CAKI-1 renal = system: CAKI-1 renal
OVCAR-4 ovarian = system: OVCAR-4 ovarian
COLO 205 colon = system: COLO 205 colon
NCI/ADR-RES ovarian = system: NCI/ADR-RES ovarian
HT29 colon = system: HT29 colon
LOX IMVI melanoma = system: LOX IMVI melanoma
NCI-H460 lung = system: NCI-H460 lung
SF-268 CNS = system: SF-268 CNS
TK-10 renal = system: TK-10 renal
U251 CNS = system: U251 CNS
MDA-MB-231 breast = system: MDA-MB-231 breast
K-562 leukemia = system: K-562 leukemia
BT-549 breast = system: BT-549 breast
HL-60(TB) leukemia = system: HL-60(TB) leukemia
SF-295 CNS = system: SF-295 CNS
DU-145 prostate = system: DU-145 prostate
HCT-116 colon = system: HCT-116 colon
UACC-257 melanoma = system: UACC-257 melanoma
RPMI-8226 leukemia = system: RPMI-8226 leukemia
SK-MEL-5 melanoma = system: SK-MEL-5 melanoma
NCI-H23 lung = system: NCI-H23 lung
HS 578T breast = system: HS 578T breast
SK-MEL-2 melanoma = system: SK-MEL-2 melanoma

Compound: CCOC(=O)c1c(Br)c(-c2ccc(Br)cc2)c(Br)n1C
- GI50 (UACC-62 melanoma): 23.6 µM
- TGI (UACC-62 melanoma): > 100 µM
- GI50 (SR leukemia): 10 µM
- TGI (SR leukemia): 26.1 µM
- TGI (CCRF-CEM leukemia): 31.5 µM
- GI50 (NCI-H522 lung): 11.2 µM
- TGI (NCI-H522 lung): 44.5 µM
- TGI (OVCAR-8 ovarian): 87.1 µM
- TGI (HOP-62 NSCLC): 53.1 µM
- TGI (MCF7 breast): 80.7 µM
- TGI (KM12 colon): 26.4 µM
- TGI (MOLT-4 leukemia): 37.6 µM
- TGI (SK-OV-3 ovarian): > 100 µM
- TGI (OVCAR-5 ovarian): 59.7 µM
- GI50 (HOP-92 NSCLC): 14.3 µM
- TGI (HOP-92 NSCLC): 55.7 µM
- TGI (HCC-2998 colon): 42.1 µM
- TGI (T-47D breast): > 100 µM
- TGI (IGROV1 ovarian): > 100 µM
- TGI (OVCAR-3 ovarian): 38.7 µM
- TGI (ACHN renal): 84.7 µM
- TGI (NCI-H226 lung): 49.4 µM
- TGI (HCT-15 colon): 73 µM
- TGI (SNB-19 CNS): > 100 µM
- GI50 (SNB-75 CNS): 5.3 µM
- TGI (SNB-75 CNS): 49.7 µM
- TGI (SK-MEL-28 melanoma): 51.8 µM
- TGI (M14 melanoma): 63.3 µM
- GI50 (EKVX NSCLC): 20.3 µM
- TGI (EKVX NSCLC): 74.2 µM
- TGI (A549 NSCLC): > 100 µM
- TGI (A498 renal): 44.2 µM
- TGI (SW-620 colon): > 100 µM
- TGI (SF-539 CNS): 73.2 µM
- GI50 (MDA-N): 5.64 µM
- TGI (MDA-N): 32.5 µM
- GI50 (MDA-MB-435): 4.26 µM
- TGI (MDA-MB-435): 22.6 µM
- TGI (MALME-3M melanoma): 62.7 µM
- TGI (PC-3 prostate): 71.1 µM
- TGI (RXF 393 renal): 34.2 µM
- TGI (786-0 renal): 89.7 µM
- TGI (SN12C renal): 84 µM
- TGI (UO-31 renal): > 100 µM
- TGI (CAKI-1 renal): 75.2 µM
- TGI (OVCAR-4 ovarian): > 100 µM
- TGI (COLO 205 colon): 34.3 µM
- GI50 (NCI/ADR-RES ovarian): 21.2 µM
- TGI (NCI/ADR-RES ovarian): 87.5 µM
- TGI (HT29 colon): 42.5 µM
- GI50 (LOX IMVI melanoma): 14.3 µM
- TGI (LOX IMVI melanoma): 30.4 µM
- TGI (NCI-H460 lung): > 100 µM
- TGI (SF-268 CNS): 75.9 µM
- TGI (TK-10 renal): > 100 µM
- TGI (U251 CNS): 55 µM
- TGI (MDA-MB-231 breast): 50.1 µM
- GI50 (K-562 leukemia): 11.3 µM
- TGI (K-562 leukemia): 35.1 µM
- TGI (BT-549 breast): 79.4 µM
- GI50 (HL-60(TB) leukemia): 5.24 µM
- TGI (HL-60(TB) leukemia): 16.6 µM
- TGI (SF-295 CNS): 45.6 µM
- TGI (DU-145 prostate): > 100 µM
- GI50 (HCT-116 colon): 14.8 µM
- TGI (HCT-116 colon): 34.4 µM
- TGI (UACC-257 melanoma): 78 µM
- TGI (RPMI-8226 leukemia): 42.3 µM
- TGI (SK-MEL-5 melanoma): 35.2 µM
- TGI (NCI-H23 lung): > 100 µM
- TGI (HS 578T breast): > 100 µM

Compound: CC(C(=O)ON1C(=O)CCC1=O)c1ccc(C(=O)c2ccccc2)s1 (stereo not drawn)
- TGI (UACC-62 melanoma): > 100 µM
- TGI (SR leukemia): > 100 µM
- TGI (CCRF-CEM leukemia): > 100 µM
- TGI (NCI-H522 lung): > 100 µM
- TGI (OVCAR-8 ovarian): > 100 µM
- TGI (HOP-62 NSCLC): > 100 µM
- TGI (MCF7 breast): > 100 µM
- TGI (KM12 colon): > 100 µM
- TGI (MOLT-4 leukemia): > 100 µM
- TGI (SK-OV-3 ovarian): > 100 µM
- TGI (OVCAR-5 ovarian): > 100 µM
- TGI (HOP-92 NSCLC): > 100 µM
- TGI (HCC-2998 colon): > 100 µM
- TGI (T-47D breast): > 100 µM
- TGI (IGROV1 ovarian): > 100 µM
- TGI (OVCAR-3 ovarian): > 100 µM
- TGI (ACHN renal): > 100 µM
- TGI (NCI-H226 lung): > 100 µM
- TGI (HCT-15 colon): > 100 µM
- TGI (SNB-19 CNS): > 100 µM
- TGI (SNB-75 CNS): > 100 µM
- TGI (SK-MEL-28 melanoma): > 100 µM
- TGI (M14 melanoma): > 100 µM
- TGI (EKVX NSCLC): > 100 µM
- TGI (A549 NSCLC): > 100 µM
- TGI (A498 renal): > 100 µM
- TGI (SW-620 colon): > 100 µM
- TGI (MDA-N): > 100 µM
- TGI (MDA-MB-435): > 100 µM
- TGI (MALME-3M melanoma): > 100 µM
- TGI (PC-3 prostate): > 100 µM
- TGI (RXF 393 renal): > 100 µM
- TGI (786-0 renal): > 100 µM
- TGI (SN12C renal): > 100 µM
- TGI (UO-31 renal): > 100 µM
- TGI (CAKI-1 renal): > 100 µM
- TGI (OVCAR-4 ovarian): > 100 µM
- TGI (COLO 205 colon): > 100 µM
- TGI (NCI/ADR-RES ovarian): > 100 µM
- TGI (SK-MEL-2 melanoma): > 100 µM
- TGI (HT29 colon): > 100 µM
- TGI (LOX IMVI melanoma): > 100 µM
- TGI (NCI-H460 lung): > 100 µM
- TGI (SF-268 CNS): > 100 µM
- TGI (TK-10 renal): > 100 µM
- TGI (U251 CNS): > 100 µM
- TGI (MDA-MB-231 breast): > 100 µM
- TGI (K-562 leukemia): > 100 µM
- TGI (BT-549 breast): > 100 µM
- TGI (SF-295 CNS): > 100 µM
- TGI (DU-145 prostate): > 100 µM
- TGI (HCT-116 colon): > 100 µM
- TGI (UACC-257 melanoma): > 100 µM
- TGI (RPMI-8226 leukemia): > 100 µM
- TGI (SK-MEL-5 melanoma): > 100 µM
- TGI (NCI-H23 lung): > 100 µM
- TGI (HS 578T breast): > 100 µM
